Reference: paper PMC3764026, “Adaptive Evolution of Escherichia coli to an α-Peptide/β-Peptoid Peptidomimetic Induces Stable Resistance” (PLoS ONE, 2013)
Converted amounts (≈) assume the structure as drawn. Read-outs that look alike come from different tables or passages of the source. Positions of bridges follow the written chain, without caps; N, C: chain ends. Non-standard residues stand in square brackets, D forms with d. Residues, ends and D or L forms follow the SMILES beside them. *: point of attachment. X1 = CC[C@H](C)CCCCC(=O)*; Dab = NCC[C@H](N)C(=O)O

Assays:
[1] = system: E. coli ATCC 25922 lineages adapted to peptidomimetic 1; type: cell-based, Escherichia coli; conditions: for cross-resistance to conventional antibiotics: any of the lineages (peptidomimetic- and polymyxin B-exposed), population MIC, data not shown
Protocol: (§1) Continuous selection of resistance was performed for peptidomimetic 1 (Figure 1) and for the clinically relevant natural antimicrobial peptide, polymyxin B. A bacterial suspension of a single colony of E. coli ATCC 25922 was re-inoculated (10 µl) five times in unsupplemented MHB (990 µl). It was then re-inoculated in MHB supplemented with peptidomimetic 1 (ten lineages) or polymyxin B (ten lineages), and after ten re-inoculations at constant peptidomimetic or polymyxin B concentration, the concentrations were doubled. […] Four lineages grown in MHB with MilliQ water were included as control. Re-inoculations were performed twice a day, but were reduced to once a day when growth was slower as assessed by turbidity of the cultures. The total number of passages (supplemented with peptidomimetic/AMP) was 77 times equivalent to approx. 500 generations. For each increase in concentration the lineages were preserved as freezing stocks. Ten colony isolates were randomly selected from each lineage population at 32×MIC and preserved as freezing stocks.
(§2) MIC was determined by using the micro-dilution method according to guidelines of the Clinical and Laboratory Standards Institute. Peptidomimetic 1 and erythromycin 1∶2 serial dilutions were prepared from 1024 µg/mL stock solutions to give a final range of 512-0.5 µg/mL in the wells. Ampicillin 1∶2 serial dilutions were prepared from a 256 µg/mL stock solution to give a final range of 128-0.13 µg/mL in the wells. Polymyxin B and gentamicin 1∶2 serial dilutions were prepared from a 64 µg/mL stock solution to give a final range of 32-0.03 µg/mL in the wells. Also, 1∶2 serial dilutions of the AMPs KR-12, IsCTp, melittin and PEP-1-K were prepared from 64 µg/mL stock solutions to give a final range of 32-0.03 µg/mL in the wells; however this was performed in 1% peptone instead of in MHB since activity was drastically diminished in the latter (not shown).
(§3) The population lineages were tested for their susceptibility towards peptidomimetic 1, polymyxin B, gentamicin and ampicillin. Single-culture isolates selected from these populations were additionally tested against peptidomimetic 1, polymyxin B, erythromycin and the five reference AMPs. To estimate the level of cross-resistance to closely related peptidomimetics, MIC determinations were performed for peptidomimetics 2 and 3 (Figure 1) towards selected isolates. The bacterial suspensions were grown overnight in MHB at 37°C for determination of the population MIC, or individual isolates were grown overnight on non-selective BHI agar at 37°C. […] In all experiments, bacterial cells were suspended in 0.9% saline to give a turbidity of 0.13 at OD546 (approximately 1×10^8 CFU/mL) and diluted in MHB pH 7.4 to a final concentration of 5×10^5 CFU/mL in each well. Polypropylene plates (Nunc 442587) were used to minimize peptide binding, and the incubation time was 18–20 hours at 37°C. Incubation time was additionally extended up to 44 hours for the individual isolates due to a potential effect of growth rate on the outcome, but no effect was seen of this (not shown). MIC was found in a minimum of two technical (population MIC) or biological (isolate MIC) replicates as the lowest concentration of the AMP or antibiotic where no visible growth was observed.
(§4) Frozen stocks were reconditioned in unsupplemented MHB media for five transfers (∼35 generations) at 37°C. The heritability of resistance was established through MIC determination of bacterial populations as described above.

[2] = system: isolates from peptidomimetic 1-exposed E. coli ATCC 25922 lineages; conditions: for change in MIC following acquisition of peptidomimetic resistance: isolate 2–7 vs wild type, biological duplicates; for MIC: two biological replicates; for cross-resistance: MIC as compared to the wild type: all twenty isolates from lineages no. 2 and 5, KR-12, IsCTp, melittin, PEP-1-K in 1% peptone instead of MHB
Protocol: as §1
MIC was determined by using the micro-dilution method according to guidelines of the Clinical and Laboratory Standards Institute. Peptidomimetic 1 and erythromycin 1∶2 serial dilutions were prepared from 1024 µg/mL stock solutions to give a final range of 512-0.5 µg/mL in the wells. Ampicillin 1∶2 serial dilutions were prepared from a 256 µg/mL stock solution to give a final range of 128-0.13 µg/mL in the wells. Polymyxin B and gentamicin 1∶2 serial dilutions were prepared from a 64 µg/mL stock solution to give a final range of 32-0.03 µg/mL in the wells.
as §3, with “Incubation time was additionally extended up to 44 hours for the individual isolates due to a potential effect of growth rate on the outcome, but no effect was seen of this (not shown).” left out

[3] = system: Escherichia coli ATCC 25922; type: cell-based; conditions: wild-type E. coli ATCC 25922; MHB pH 7.4, 5×10^5 CFU/mL, 37°C, 18–20 h
Protocol: All experiments were performed with Escherichia coli ATCC 25922. Stock cultures of the wild-type strain and lineage isolates were stored at –80°C in 4% (w/v) glycerol, 0.5% (w/v) glucose, 2% (w/v) skimmed milk powder and 3% (w/v) tryptone soy powder. Lineage populations were frozen at –80°C in 50% (w/v) glycerol. All experiments were performed at 37°C. Experiments were carried out in cation-adjusted Mueller Hinton II broth (MHB) (Becton Dickinson 212322) adjusted to pH 7.4 or in 1% (w/v) peptone (Becton Dickinson 211677) for MIC determination of natural AMPs. Brain Heart Infusion (BHI) (CM1135) with agar (VWR 20768.292) 1.5% as gelling agent was used throughout for colony plating.
as §2
The population lineages were tested for their susceptibility towards peptidomimetic 1, polymyxin B, gentamicin and ampicillin. Single-culture isolates selected from these populations were additionally tested against peptidomimetic 1, polymyxin B, erythromycin and the five reference AMPs. To estimate the level of cross-resistance to closely related peptidomimetics, MIC determinations were performed for peptidomimetics 2 and 3 (Figure 1) towards selected isolates. […]

[4] = system: E. coli ATCC 25922 control lineages; type: cell-based, Escherichia coli; conditions: two technical duplicates
Protocol: as §1, §2, §3, §4

[5] = system: E. coli ATCC 25922 lineages adapted to polymyxin B; type: cell-based, Escherichia coli; conditions: for MIC against polymyxin after 35 generations w/o selection / MIC against polymyxin after selection: two technical duplicates; for MIC against polymyxin after selection: MHB pH 7.4, 37°C, 18–20 h
Protocol: as §1, §2, §3, §4

[6] = system: Escherichia coli ATCC 25922; assay: Continuous selection experiment; type: cell-based
Protocol: as §1

CC1(C)S[C@@H]2[C@H](NC(=O)[C@H](N)c3ccccc3)C(=O)N2[C@H]1C(=O)O [ampicillin, reference compound]
cross-resistance to conventional antibiotics [1]: No cross-resistance

CC[C@H]1OC(=O)[C@H](C)[C@@H](O[C@H]2C[C@@](C)(OC)[C@@H](O)[C@H](C)O2)[C@H](C)[C@@H](O[C@@H]2O[C@H](C)C[C@H](N(C)C)[C@H]2O)[C@](C)(O)C[C@@H](C)C(=O)[C@H](C)[C@@H](O)[C@]1(C)O [erythromycin, reference compound]
change in susceptibility as compared to the wild type ([2]; the five highly resistant isolates of lineage no. 2 carrying the macrolide transporter mutation, not shown): No change

CNC(C)C1CCC(N)C(OC2C(N)CC(N)C(OC3OCC(C)(O)C(NC)C3O)C2O)O1 (stereo not drawn) [gentamicin, reference compound]
cross-resistance to conventional antibiotics [1]: No cross-resistance

OO [hydrogen peroxide, reference compound]
change in MIC following acquisition of peptidomimetic resistance [2]: No changes

CC(=O)N[C@@H](CCCCN)C(=O)N(CCC(=O)N[C@@H](CCCCN)C(=O)N(CCC(=O)N[C@@H](CCCCN)C(=O)N(CCC(=O)N[C@@H](CCCCN)C(=O)N(CCC(=O)N[C@@H](CCCCN)C(=O)N(CCC(=O)N[C@@H](CCCCN)C(=O)N(CCC(=O)N[C@@H](CCCCN)C(=O)N(CCC(=O)N[C@@H](CCCCN)C(=O)N(CCC(N)=O)[C@@H](C)c1ccccc1)[C@@H](C)c1ccccc1)[C@@H](C)c1ccccc1)[C@@H](C)c1ccccc1)[C@@H](C)c1ccccc1)[C@@H](C)c1ccccc1)[C@@H](C)c1ccccc1)[C@@H](C)c1ccccc1 [peptidomimetic 2]
wt MIC [3]: 64 µg/mL | MIC ([2]; isolates 2–4 and 2–6 (shared values), mean when results varied): 512 µg/mL (≈ 206 µM) | MIC ([2]; isolates 2–7, 2–9 and 2–10 (shared values), mean when results varied): 512 µg/mL (≈ 206 µM) | MIC ([2]; six of the ten isolates from lineage no. 5 (data point shared with wild type)): 64 µg/mL (≈ 25.7 µM)

CC[C@H](C)CCCCC(=O)N[C@@H](CCN)C(=O)N[C@H](C(=O)N[C@@H](CCN)C(=O)N[C@H]1CCNC(=O)[C@H]([C@@H](C)O)NC(=O)[C@H](CCN)NC(=O)[C@H](CCN)NC(=O)[C@H](CC(C)C)NC(=O)[C@@H](Cc2ccccc2)NC(=O)[C@H](CCN)NC1=O)[C@@H](C)O [polymyxin B, Polymyxin B] (X1-[Dab]T[Dab][Dab][Dab][dF]L[Dab][Dab]T; lactam 4-C (inferred); N-terminus assumed)
cross-resistance: MIC as compared to the wild type ([2]; not shown): did not find increased MIC values | cross-resistance after removal of the selection pressure ([1]; peptidomimetic-exposed lineages, ~35 generations unsupplemented, became similar to controls, not shown): lost | MIC against polymyxin after 35 generations w/o selection ([4]; Control 1 lineage (MilliQ water)): 0.5 µg/mL (≈ 0.415 µM) | MIC against polymyxin after selection ([4]; Control 1 lineage (MilliQ water, no polymyxin)): 8 µg/mL (≈ 6.65 µM) | MIC against polymyxin after 35 generations w/o selection ([4]; Control 2 lineage (MilliQ water)): 0.5 to 1 µg/mL | MIC against polymyxin after selection ([4]; Control 2 lineage (MilliQ water, no polymyxin)): 1 µg/mL (≈ 0.831 µM) | MIC against polymyxin after 35 generations w/o selection ([5]; polymyxin B-exposed lineage 2, five passages in unsupplemented MHB): 32 µg/mL (≈ 26.6 µM) | MIC against polymyxin after selection ([5]; polymyxin B-exposed lineage 2, population outgrown at 32×wt MIC): 32 µg/mL (≈ 26.6 µM) | MIC against polymyxin after 35 generations w/o selection ([5]; polymyxin B-exposed lineage 3, five passages in unsupplemented MHB): 32 µg/mL (≈ 26.6 µM) | MIC against polymyxin after selection ([5]; polymyxin B-exposed lineage 3, population outgrown at 32×wt MIC): 32 µg/mL (≈ 26.6 µM) | MIC against polymyxin after 35 generations w/o selection ([5]; polymyxin B-exposed lineage 4, five passages in unsupplemented MHB): 32 µg/mL (≈ 26.6 µM) | MIC against polymyxin after selection ([5]; polymyxin B-exposed lineage 4, population outgrown at 32×wt MIC): 32 µg/mL (≈ 26.6 µM) | MIC against polymyxin after 35 generations w/o selection ([5]; polymyxin B-exposed lineage 5, five passages in unsupplemented MHB): 32 µg/mL (≈ 26.6 µM) | MIC against polymyxin after selection ([5]; polymyxin B-exposed lineage 5, population outgrown at 32×wt MIC): 32 µg/mL (≈ 26.6 µM) | MIC against polymyxin after 35 generations w/o selection ([5]; polymyxin B-exposed lineage 6, five passages in unsupplemented MHB): 32 µg/mL (≈ 26.6 µM) | MIC against polymyxin after selection ([5]; polymyxin B-exposed lineage 6, population outgrown at 32×wt MIC): 32 µg/mL (≈ 26.6 µM) | MIC against polymyxin after 35 generations w/o selection ([5]; polymyxin B-exposed lineage 8, five passages in unsupplemented MHB): 32 µg/mL (≈ 26.6 µM) | MIC against polymyxin after selection ([5]; polymyxin B-exposed lineage 8, population outgrown at 32×wt MIC): 32 µg/mL (≈ 26.6 µM) | MIC against polymyxin after 35 generations w/o selection ([5]; polymyxin B-exposed lineage 9, five passages in unsupplemented MHB): 32 µg/mL (≈ 26.6 µM) | MIC against polymyxin after selection ([5]; polymyxin B-exposed lineage 9, population outgrown at 32×wt MIC): 32 µg/mL (≈ 26.6 µM) | MIC against polymyxin after 35 generations w/o selection ([5]; polymyxin B-exposed lineage 10, five passages in unsupplemented MHB): 32 µg/mL (≈ 26.6 µM) | MIC against polymyxin after selection ([5]; polymyxin B-exposed lineage 10, population outgrown at 32×wt MIC): 32 µg/mL (≈ 26.6 µM) | increase in MIC as compared to the wild-type strain ([5]; the eight polymyxin B-exposed lineages after selection): 32 fold | lineages that eventually grew at 32×wt MIC ([6]; ten lineages per agent, from 1/16×wt MIC, doubled stepwise, 77 inoculations, approx. 500 generations, 32×wt MIC = 256 µg/mL peptidomimetic 1, 32 µg/mL polymyxin B): eight out of ten | growth of unexposed control lineages at 4×wt MIC ([6]; two controls per agent, 32 µg/mL peptidomimetic 1 or 4 µg/mL polymyxin B): one of the two controls

lysozyme
change in MIC following acquisition of peptidomimetic resistance [2]: No changes

melittin [melitin, reference compound]
cross-resistance: MIC as compared to the wild type ([2]; not shown): did not find increased MIC values

protamine [reference compound]
cross-resistance: MIC as compared to the wild type ([2]; not shown): did not find increased MIC values
